Experimental data from US5753715A, “2-disubstituted cyclohexenyl and cyclohexyl antimicrobial agents” (Ortho Pharmaceutical Corporation, priority 1995, dated 1998).
In brackets after ≈: the same amount, converted by molar mass.

What was measured:
Kinase A and SpoOF = target: T1, Kinase A and SpoOF (Bacillus subtilis, UniProt P16497); experiment: Autophosphorylation of Kinase A and Transphosphorylation of SPoOF Assay; format: biochemical; settings: inhibition of Kinase A autophosphorylation / SpoOF transphosphorylation, [32P]ATP, gel, phosphoimager
T1 sequence (P16497 1-606): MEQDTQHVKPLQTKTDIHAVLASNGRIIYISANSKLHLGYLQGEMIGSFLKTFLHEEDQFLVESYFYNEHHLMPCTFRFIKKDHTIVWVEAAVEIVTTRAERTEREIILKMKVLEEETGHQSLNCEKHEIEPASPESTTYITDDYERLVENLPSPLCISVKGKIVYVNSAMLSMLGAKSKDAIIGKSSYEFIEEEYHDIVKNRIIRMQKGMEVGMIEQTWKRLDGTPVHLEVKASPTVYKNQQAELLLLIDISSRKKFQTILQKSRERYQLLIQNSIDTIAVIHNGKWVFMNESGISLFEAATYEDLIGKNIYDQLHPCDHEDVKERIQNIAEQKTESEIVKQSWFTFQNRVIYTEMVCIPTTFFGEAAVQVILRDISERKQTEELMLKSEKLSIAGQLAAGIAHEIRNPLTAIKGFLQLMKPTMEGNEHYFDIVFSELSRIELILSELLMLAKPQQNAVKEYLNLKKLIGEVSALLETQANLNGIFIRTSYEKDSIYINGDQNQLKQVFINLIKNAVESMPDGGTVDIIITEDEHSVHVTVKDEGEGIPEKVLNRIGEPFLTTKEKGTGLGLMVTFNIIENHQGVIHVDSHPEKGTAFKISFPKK

MRSA oc2089 = experiment: MIC, microdilution broth method (NCCLS); format: cell-based; settings: cation supplemented Mueller Hinton broth, 35° C., 16-20 hours; unit assumed
Method: (§1) The in vitro antimicrobial spectrum of the compounds of the present invention were determined by the microdilution broth method following the test method from the National Committee for […] (NCCLS ). The method is described in the NCCLS Document M7-A2, Vol. 10, No.8 "Methods for Dilution Antimicrobial Susceptibility Test for Bacteria that Grow Aerobically--Second Edition".
(§2) In this method two fold serial dilutions of drug in cation supplemented Mueller Hinton broth are added to wells in microdilution trays. The test organisms are prepared by adjusting the turbidity of actively growing broth cultures so that the final concentration of test organism after it is added to the wells is approximately 5×10^4 colony forming units per well delivered by the Steers replicating device.
(§3) Following inoculation of the microdilution trays, the trays are incubated at 35° C. for 16-20 hours and then read. […] The amount of growth in the wells containing the test compound is compared with the amount of growth in the growth-control wells used in each tray.

E. coli oc2530 = experiment: MIC, microdilution broth method (NCCLS); format: cell-based; settings: cation supplemented Mueller Hinton broth, 35° C., 16-20 hours; unit assumed
Method: as §1, §2, §3

E. faecium oc2993 = experiment: MIC, microdilution broth method (NCCLS); format: cell-based; settings: cation supplemented Mueller Hinton broth, 35° C., 16-20 hours; unit assumed
Method: as §1, §2, §3

MRSA oc667 = experiment: MIC, microdilution broth method (NCCLS); format: cell-based; settings: cation supplemented Mueller Hinton broth, 35° C., 16-20 hours; unit assumed
Method: as §1, §2, §3

E. faecalis oc3041 = experiment: MIC, microdilution broth method (NCCLS); format: cell-based; settings: cation supplemented Mueller Hinton broth, 35° C., 16-20 hours; unit assumed
Method: as §1, §2, §3

Ps. aerug. oc27853 = experiment: MIC, microdilution broth method (NCCLS); format: cell-based; settings: cation supplemented Mueller Hinton broth, 35° C., 16-20 hours; unit assumed
Method: as §1, §2, §3

E. coli oc2605 = experiment: MIC, microdilution broth method (NCCLS); format: cell-based; settings: cation supplemented Mueller Hinton broth, 35° C., 16-20 hours; unit assumed
Method: as §1, §2, §3

A. niger 10578 = experiment: MIC, microdilution broth method (NCCLS); format: cell-based; settings: cation supplemented Mueller Hinton broth, 35° C., 16-20 hours; unit assumed
Method: as §1, §2, §3

K. pneum. oc1943 = experiment: MIC, microdilution broth method (NCCLS); format: cell-based; settings: cation supplemented Mueller Hinton broth, 35° C., 16-20 hours; unit assumed
Method: as §1, §2, §3

Ps. aerug. oc161 = experiment: MIC, microdilution broth method (NCCLS); format: cell-based; settings: cation supplemented Mueller Hinton broth, 35° C., 16-20 hours; unit assumed
Method: as §1, §2, §3

C. tropicalis = experiment: MIC, microdilution broth method (NCCLS); format: cell-based; settings: cation supplemented Mueller Hinton broth, 35° C., 16-20 hours; unit assumed
Method: as §1, §2, §3

E. faecalis ACTCC 29212 = experiment: MIC, microdilution broth method (NCCLS); format: cell-based; settings: cation supplemented Mueller Hinton broth, 35° C., 16-20 hours; unit assumed
Method: as §1, §2, §3

C. albicans 10231 = experiment: MIC, microdilution broth method (NCCLS); format: cell-based; settings: cation supplemented Mueller Hinton broth, 35° C., 16-20 hours; unit assumed
Method: as §1, §2, §3

S. aureus ATCC 29213 = experiment: MIC, microdilution broth method (NCCLS); format: cell-based; settings: cation supplemented Mueller Hinton broth, 35° C., 16-20 hours; unit assumed
Method: as §1, §2, §3

S. epi oc2603 = experiment: MIC, microdilution broth method (NCCLS); format: cell-based; set-up: unit not given here; settings: cation supplemented Mueller Hinton broth, 35° C., 16-20 hours
Method: as §1, §2, §3

For Clc1ccc(CC2(CCOc3ccc(CCNCCN4CCCC4)cc3)C=CCCC2)cc1 (centres unmarked) [Compound 34], the “IC50” value (Kinase A and SpoOF) was 295 mM, the “IC min” value (Kinase A and SpoOF) was 125 mM and the MIC MRSA oc2089 (MRSA oc2089) was 4 µg/mL (≈ 8.56 µM). It also gave an MIC E. coli oc2530 (E. coli oc2530) of 4 µg/mL (≈ 8.56 µM), an MIC E. faecium oc2993 (E. faecium oc2993) of 4 µg/mL (≈ 8.56 µM) and an MIC MRSA oc667 (MRSA oc667) of 4 µg/mL (≈ 8.56 µM). The MIC E. faecalis oc3041 (E. faecalis oc3041) was 4 µg/mL (≈ 8.56 µM), the MIC Ps. aerug. oc27853 (Ps. aerug. oc27853) was > 64 µg/mL and the MIC E. coli oc2605 (E. coli oc2605) was 8 µg/mL (≈ 17.1 µM). For the same molecule, the MIC A. niger 10578 (A. niger 10578) was 8 µg/mL (≈ 17.1 µM), the MIC K. pneum. oc1943 (K. pneum. oc1943) was 32 µg/mL (≈ 68.5 µM) and the MIC Ps. aerug. oc161 (Ps. aerug. oc161) was > 64 µg/mL. For the same molecule, the MIC C. tropicalis (C. tropicalis) was ≤ 4 µg/mL, the MIC E. faecalis ACTCC 29212 (E. faecalis ACTCC 29212) was 4 µg/mL (≈ 8.56 µM) and the MIC C. albicans 10231 (C. albicans 10231) was 8 µg/mL (≈ 17.1 µM). The MIC S. aureus ATCC 29213 (S. aureus ATCC 29213) was 4 µg/mL (≈ 8.56 µM) and the “MIC S. epi oc2603” value (S. epi oc2603) was 4.
With C1=CC(CCOc2ccc(CCCNCCN3CCCC3)cc2)(Cc2ccccc2)CCC1 (centres unmarked) [Compound 3] the “IC50” value (Kinase A and SpoOF) was 159 mM, the “IC min” value (Kinase A and SpoOF) was 31.25 mM and the MIC MRSA oc2089 (MRSA oc2089) was 8 µg/mL (≈ 17.9 µM). It also gave an MIC E. coli oc2530 (E. coli oc2530) of 8 µg/mL (≈ 17.9 µM), an MIC E. faecium oc2993 (E. faecium oc2993) of 8 µg/mL (≈ 17.9 µM) and an MIC MRSA oc667 (MRSA oc667) of 8 µg/mL (≈ 17.9 µM). The MIC E. faecalis oc3041 (E. faecalis oc3041) was 8 µg/mL (≈ 17.9 µM), the MIC Ps. aerug. oc27853 (Ps. aerug. oc27853) was > 64 µg/mL and the MIC E. coli oc2605 (E. coli oc2605) was 16 µg/mL (≈ 35.8 µM). The MIC A. niger 10578 (A. niger 10578) was 4 µg/mL (≈ 8.95 µM), the MIC K. pneum. oc1943 (K. pneum. oc1943) was 32 µg/mL (≈ 71.6 µM) and the MIC Ps. aerug. oc161 (Ps. aerug. oc161) was > 64 µg/mL. The MIC C. tropicalis (C. tropicalis) was 8 µg/mL (≈ 17.9 µM), the MIC E. faecalis ACTCC 29212 (E. faecalis ACTCC 29212) was 8 µg/mL (≈ 17.9 µM) and the MIC C. albicans 10231 (C. albicans 10231) was > 64 µg/mL. For the same molecule, the MIC S. aureus ATCC 29213 (S. aureus ATCC 29213) was 8 µg/mL (≈ 17.9 µM) and the “MIC S. epi oc2603” value (S. epi oc2603) was 8.
In the case of CNCCCc1ccc(OCCC2(c3ccc(F)cc3)C=CCCC2)cc1 (centres unmarked) [Compound 24], the “IC50” value (Kinase A and SpoOF) was 185 mM, the “IC min” value (Kinase A and SpoOF) was 125 mM and the MIC MRSA oc2089 (MRSA oc2089) was 8 µg/mL (≈ 21.8 µM). It also gave an MIC E. coli oc2530 (E. coli oc2530) of 8 µg/mL (≈ 21.8 µM), an MIC E. faecium oc2993 (E. faecium oc2993) of 8 µg/mL (≈ 21.8 µM) and an MIC MRSA oc667 (MRSA oc667) of 8 µg/mL (≈ 21.8 µM). For the same molecule, the MIC E. faecalis oc3041 (E. faecalis oc3041) was 8 µg/mL (≈ 21.8 µM), the MIC Ps. aerug. oc27853 (Ps. aerug. oc27853) was > 128 µg/mL and the MIC E. coli oc2605 (E. coli oc2605) was > 64 µg/mL. For the same molecule, the MIC A. niger 10578 (A. niger 10578) was 4 µg/mL (≈ 10.9 µM), the MIC K. pneum. oc1943 (K. pneum. oc1943) was > 128 µg/mL and the MIC Ps. aerug. oc161 (Ps. aerug. oc161) was > 128 µg/mL. It also gave an MIC C. tropicalis (C. tropicalis) of 8 µg/mL (≈ 21.8 µM), an MIC E. faecalis ACTCC 29212 (E. faecalis ACTCC 29212) of 8 µg/mL (≈ 21.8 µM) and an MIC C. albicans 10231 (C. albicans 10231) of 8 µg/mL (≈ 21.8 µM). The MIC S. aureus ATCC 29213 (S. aureus ATCC 29213) was 8 µg/mL (≈ 21.8 µM) and the “MIC S. epi oc2603” value (S. epi oc2603) was 8.
With NCCc1ccc(OCCC2(Cc3ccccc3)C=CCCC2)cc1 (centres unmarked) [Compound 17] the “IC50” value (Kinase A and SpoOF) was 38.3 mM, the “IC min” value (Kinase A and SpoOF) was 15.6 mM and the MIC MRSA oc2089 (MRSA oc2089) was 8 µg/mL (≈ 23.8 µM). It also gave an MIC E. coli oc2530 (E. coli oc2530) of 8 µg/mL (≈ 23.8 µM), an MIC E. faecium oc2993 (E. faecium oc2993) of 8 µg/mL (≈ 23.8 µM) and an MIC MRSA oc667 (MRSA oc667) of 8 µg/mL (≈ 23.8 µM). The MIC E. faecalis oc3041 (E. faecalis oc3041) was 8 µg/mL (≈ 23.8 µM), the MIC Ps. aerug. oc27853 (Ps. aerug. oc27853) was > 64 µg/mL and the MIC E. coli oc2605 (E. coli oc2605) was 64 µg/mL (≈ 191 µM). The MIC A. niger 10578 (A. niger 10578) was 4 µg/mL (≈ 11.9 µM), the MIC K. pneum. oc1943 (K. pneum. oc1943) was > 64 µg/mL and the MIC Ps. aerug. oc161 (Ps. aerug. oc161) was > 64 µg/mL. The MIC C. tropicalis (C. tropicalis) was 4 µg/mL (≈ 11.9 µM), the MIC E. faecalis ACTCC 29212 (E. faecalis ACTCC 29212) was 8 µg/mL (≈ 23.8 µM) and the MIC C. albicans 10231 (C. albicans 10231) was ≤ 16 µg/mL. The MIC S. aureus ATCC 29213 (S. aureus ATCC 29213) was 8 µg/mL (≈ 23.8 µM) and the “MIC S. epi oc2603” value (S. epi oc2603) was 8.
